Entries after “also recorded” stand apart in the source; their conditions may differ.
Tests used:
α1a adrenoreceptor = target: T1, α1a adrenoreceptor (Homo sapiens, UniProt P35348); assay: Cellular calcium flux (FLIPR), α1a expressing CHO cells; assay type: cell-based; conditions: for increase in intracellular calcium, α1a calcium assay (in words): α1a expressing CHO cells
T1 construct: expressed in transfected cells
T1 sequence (P35348 1-466): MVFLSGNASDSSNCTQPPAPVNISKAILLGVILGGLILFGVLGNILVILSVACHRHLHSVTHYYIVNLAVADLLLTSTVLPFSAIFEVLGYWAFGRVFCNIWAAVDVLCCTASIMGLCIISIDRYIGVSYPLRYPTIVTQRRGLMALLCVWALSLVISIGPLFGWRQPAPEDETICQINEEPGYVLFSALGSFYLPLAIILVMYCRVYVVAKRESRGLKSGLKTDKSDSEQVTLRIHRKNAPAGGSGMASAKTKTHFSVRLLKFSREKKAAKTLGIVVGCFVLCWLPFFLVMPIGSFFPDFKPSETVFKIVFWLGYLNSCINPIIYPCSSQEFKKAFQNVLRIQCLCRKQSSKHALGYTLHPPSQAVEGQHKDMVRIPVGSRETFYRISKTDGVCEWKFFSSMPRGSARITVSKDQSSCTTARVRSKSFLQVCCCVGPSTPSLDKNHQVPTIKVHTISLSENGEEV
Procedure: (§1) The affinity and activity of phenylephrine metabolites were evaluated in human recombinant α1 and α2 adrenoreceptor binding and activity assays. […] Affinity of the metabolites was determined by receptor binding assays. Functional activity of the metabolites was assessed using an [^35S]-GTPγS binding exchange assay for the α2 receptor subtypes and a cell-based calcium flux response for the α1 receptor subtypes.
Intracellular calcium levels were measured using a fluorometric imaging plate reader (FLIPR). Cells expressing α1 adrenoreceptors were cultured overnight at 15,000 cells/well in 96 well black-wall clear bottom plates (Packard). Adherent cells were loaded for 1 hour at 37° C. using the FLIPR Calcium Plus Assay Kit (Molecular Probes, Eugene, Oreg.), which included 2.5 mM probenecid (Sigma). Compounds (at 10 mM in 100% DMSO) were diluted in diluting buffer (HBSS, 20 mM HEPES, 2.5 mM probenecid, 0.5% BSA, pH 7.4). A titration of norepinephrine was included in every experiment and norepinephrine (at 1 μM) was also used as a plate standard on each assay plate. Cells were maintained at 37° C. throughout all calcium measurements. Fluorescence data was collected at 1 second interval for 60 seconds, followed by collection at 2 second intervals for 30 seconds. Background fluorescence was quantitated in wells containing cells with no additions and was subtracted from all experimental samples. All conditions were done in quadruplicate. Non-linear regression analysis using GraphPad Prism was used to calculate EC50 values.
(§2) Each metabolite was evaluated in each assay in at least 2 independent experiments and a representative assay of each metabolite/assay combination is shown.

α2b adrenoreceptor = target: T2, α2b adrenoreceptor (Homo sapiens, UniProt P18089); assay: [35S]-GTPγS binding exchange, α2b CHO cell membranes; assay type: biochemical; conditions: for stimulation of [35S]-GTPγS binding, α2b (in words): CHO cell membranes
T2 construct: expressed in transfected cells; host or cells: CHO (Chinese hamster ovary) cells, membranes
T2 sequence (P18089 1-450): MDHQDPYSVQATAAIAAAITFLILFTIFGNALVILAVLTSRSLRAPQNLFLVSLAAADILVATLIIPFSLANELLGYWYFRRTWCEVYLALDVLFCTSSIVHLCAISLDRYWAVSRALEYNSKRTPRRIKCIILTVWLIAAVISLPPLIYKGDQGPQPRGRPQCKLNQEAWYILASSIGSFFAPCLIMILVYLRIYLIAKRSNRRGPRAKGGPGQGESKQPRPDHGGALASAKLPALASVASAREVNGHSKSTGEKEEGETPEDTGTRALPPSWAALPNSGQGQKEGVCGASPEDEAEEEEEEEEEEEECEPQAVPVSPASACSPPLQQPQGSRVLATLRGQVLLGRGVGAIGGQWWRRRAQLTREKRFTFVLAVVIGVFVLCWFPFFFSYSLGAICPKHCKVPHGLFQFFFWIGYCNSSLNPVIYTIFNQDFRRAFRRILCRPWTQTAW
Procedure: as §1
Assay buffer was 75 mM Tris-HCl pH 7.4, 12.5 mM MgCl2, 2 mM EDTA and 1 μM GDP. Plates were counted on a Packard TopCount. The percent increase over basal binding of [^35S]-GTPγS, a measure of efficacy, was calculated as follows: 100×[[mean total sample cpm−basal cpm]÷by basal cpm]. Basal cpm was defined as the mean cpm in the absence of agonist compound minus the mean non-specific binding cpm.
as §2

α2a adrenoreceptor = target: T3, α2a adrenoreceptor (Homo sapiens, UniProt P08913); assay: Competition binding, [3H]-UK14304, α2a CHO cell membranes; conditions: for inhibition of [3H]-UK14304 binding, α2a (in words): CHO cell membranes
T3 construct: expressed in transfected cells; host or cells: CHO (Chinese hamster ovary) cells, membranes
T3 sequence (P08913 1-465): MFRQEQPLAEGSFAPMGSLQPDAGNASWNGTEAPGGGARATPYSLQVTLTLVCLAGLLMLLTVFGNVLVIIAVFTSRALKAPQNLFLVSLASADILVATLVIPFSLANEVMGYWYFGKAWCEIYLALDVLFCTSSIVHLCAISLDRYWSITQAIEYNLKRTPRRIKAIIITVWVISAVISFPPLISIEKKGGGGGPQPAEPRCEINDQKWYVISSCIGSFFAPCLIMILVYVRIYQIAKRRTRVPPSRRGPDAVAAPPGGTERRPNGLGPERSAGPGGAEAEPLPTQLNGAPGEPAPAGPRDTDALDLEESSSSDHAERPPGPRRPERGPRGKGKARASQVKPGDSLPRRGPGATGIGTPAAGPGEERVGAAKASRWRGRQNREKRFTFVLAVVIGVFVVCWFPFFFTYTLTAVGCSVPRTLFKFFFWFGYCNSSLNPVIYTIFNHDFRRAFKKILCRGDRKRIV
Procedure: as §1
Competition Binding Assays
Competition binding assays for the α2 adrenoreceptors were performed using 20 μg membrane protein per well in binding buffer (75 mM Tris-HCl pH 7.4, 12.5 mM MgCl2, […] EDTA, 0.2% bovine serum albumin). […] Binding was terminated by rapid filtration through GF/C unifilter plates, presoaked with 0.3% polyethylenimine, with five washes with 0.5 ml cold 50 mM Tris-HCl ph 7.4, using a Packard Filtermate Harvester. After drying, bound radioactivity was determined by liquid scintillation counting (Packard TopCount) with Microscint 20, 50 μl/well. Binding data were analyzed using GraphPad Prism.
as §2

[1] = oral, approximately 24 mg of PE, healthy volunteers; cited from earlier work
[2] = listed as PE glucuronide batch 4
[3] = highest concentration evaluated (10 μM)

| agonist activity, α1a calcium assay (in words) (α1a adrenoreceptor; [3]) | EC50 (α1a adrenoreceptor; α1a-expressing CHO cells, read-out: EC50, a1a Calcium (class symbol)) [µM] | agonist activity, α2b [35S]-GTPγS assay (in words) (α2b adrenoreceptor; [3]) | EC50 (α2b adrenoreceptor; read-out: EC50, a2b GTPγS (class symbol)) [µM] | Ki (α2a adrenoreceptor; [3H]-UK14304, read-out: Ki, a2a Binding (class symbol)) [µM] | binding / affinity, α2a receptor (in words) (α2a adrenoreceptor; at 100 μM (highest concentration evaluated)) | Compound | fold less potent than PE in inducing a calcium increase, α1a cells (α1a adrenoreceptor; batch b4, approximately 0.28% PE) | increase in intracellular calcium, α1a calcium assay (in words) (α1a adrenoreceptor) | increase in intracellular calcium, α1a calcium assay (in words) (α1a adrenoreceptor; [2]) | stimulation of [35S]-GTPγS binding, α2b (in words) (α2b adrenoreceptor) | stimulation of [35S]-GTPγS binding, α2b (in words) (α2b adrenoreceptor; listed as PE glucuronide b2) | inhibition of [3H]-UK14304 binding, α2a (in words) (α2a adrenoreceptor) | inhibition of [3H]-UK14304 binding, α2a (in words) (α2a adrenoreceptor; listed as PE glucuronide b4) | inhibition of [3H]-UK14304 binding, α2a (in words) (α2a adrenoreceptor; [2]) | metabolite excreted in the urine [1] |
| --- | --- | --- | --- | --- | --- | --- | --- | --- | --- | --- | --- | --- | --- | --- | --- |
| – | – | – | – | – | – | CNC[C@H](O)c1cccc(O[C@@H]2O[C@H](C(=O)O)[C@@H](O)[C@H](O)[C@H]2O)c1 [PE glucuronide, (R)-PE glucuronide] | 300-450 fold | consistent with level of contaminating phenylephrine; also recorded: pharmacologically inactive | minimal activity | pharmacologically inactive | No stimulatory activity | weakly inhibits binding; also recorded: pharmacologically inactive | A small amount of binding | minimal activity | 12 % of dose |
| no activity | > 10 | no activity | > 10 | > 100 | no affinity | O=C(O)C(O)c1cccc(O)c1 (stereo not shown) [3-hydroxymandelic acid] | – | not active | – | no activity | – | no significant binding | – | – | 30 % of dose |
